Measurements: publication PMC7221154, “Cloning and Expression of Cockroach α7 Nicotinic Acetylcholine Receptor Subunit” (Frontiers in Physiology, 2020)

Key:
Pameα7 [1] = molecular target: T1, Pameα7 (Periplaneta americana, UniProt A0A5P8U3L1); experiment: two-electrode voltage clamp, Xenopus oocytes, agonist currents; assay type: cell-based; conditions: cDNA-injected oocytes without RIC-3, -80 mV, 0.5 μM atropine, 20-22 °C, normalized to 10 mM nicotine, unreliable (native currents at 5 and 10 mM nicotine)
T1 construct: cDNA in pGEM-HEJUEL injected in Xenopus laevis oocytes; homomeric receptor (pentamer by known biology)
T1 sequence (A0A5P8U3L1 42-518): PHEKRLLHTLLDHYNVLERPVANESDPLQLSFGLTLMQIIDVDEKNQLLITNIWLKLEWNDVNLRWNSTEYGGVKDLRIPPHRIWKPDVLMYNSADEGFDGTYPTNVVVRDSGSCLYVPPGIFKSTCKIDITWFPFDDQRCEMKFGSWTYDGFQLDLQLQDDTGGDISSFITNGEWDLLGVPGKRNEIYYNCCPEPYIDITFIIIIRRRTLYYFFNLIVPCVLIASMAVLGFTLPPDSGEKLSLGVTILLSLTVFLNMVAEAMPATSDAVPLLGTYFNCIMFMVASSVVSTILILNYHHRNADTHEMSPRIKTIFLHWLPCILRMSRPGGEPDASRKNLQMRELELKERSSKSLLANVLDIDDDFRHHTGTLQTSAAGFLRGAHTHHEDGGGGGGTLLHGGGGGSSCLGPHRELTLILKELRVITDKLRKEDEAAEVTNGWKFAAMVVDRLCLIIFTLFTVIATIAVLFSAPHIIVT

Pameα7 [2] = molecular target: T1, Pameα7; experiment: as above; assay type: cell-based; conditions: 10 mM, -80 mV, 0.5 μM atropine, EC50 could not be calculated, unreliable (low currents)

In the case of `CN1CCC[C@H]1c1cccnc1` [nicotine], the EC50 (Pameα7 [1]) is reported as 790 µM.
For `CC(=O)OCC[N+](C)(C)C` [acetylcholine], the “two-electrode voltage clamp, Xenopus oocytes, agonist currents” value (Pameα7 [2]) was “ACh and nicotine induced inward currents”.
